Patent US5770575A, “Nipecotic acid derivatives as antithrombotic compounds” (Ortho Pharmaceutical Corporation, priority 1995, dated 1998)
Each block holds one compound with its values, some of them ahead of it.

Experiments:
GPIIb/IIIa = target: T1, GPIIb/IIIa (Homo sapiens, UniProt P05106+P08514); experiment: In vitro solid phase purified glycoprotein IIb/IIIa binding assay (biotinylated fibrinogen); conditions: for IC50: Table I; for inhibition at 50 µM: read-out: Binding (column Binding IC50), % @ 50 μM
T1 sequence (P08514 32-887 limits assumed): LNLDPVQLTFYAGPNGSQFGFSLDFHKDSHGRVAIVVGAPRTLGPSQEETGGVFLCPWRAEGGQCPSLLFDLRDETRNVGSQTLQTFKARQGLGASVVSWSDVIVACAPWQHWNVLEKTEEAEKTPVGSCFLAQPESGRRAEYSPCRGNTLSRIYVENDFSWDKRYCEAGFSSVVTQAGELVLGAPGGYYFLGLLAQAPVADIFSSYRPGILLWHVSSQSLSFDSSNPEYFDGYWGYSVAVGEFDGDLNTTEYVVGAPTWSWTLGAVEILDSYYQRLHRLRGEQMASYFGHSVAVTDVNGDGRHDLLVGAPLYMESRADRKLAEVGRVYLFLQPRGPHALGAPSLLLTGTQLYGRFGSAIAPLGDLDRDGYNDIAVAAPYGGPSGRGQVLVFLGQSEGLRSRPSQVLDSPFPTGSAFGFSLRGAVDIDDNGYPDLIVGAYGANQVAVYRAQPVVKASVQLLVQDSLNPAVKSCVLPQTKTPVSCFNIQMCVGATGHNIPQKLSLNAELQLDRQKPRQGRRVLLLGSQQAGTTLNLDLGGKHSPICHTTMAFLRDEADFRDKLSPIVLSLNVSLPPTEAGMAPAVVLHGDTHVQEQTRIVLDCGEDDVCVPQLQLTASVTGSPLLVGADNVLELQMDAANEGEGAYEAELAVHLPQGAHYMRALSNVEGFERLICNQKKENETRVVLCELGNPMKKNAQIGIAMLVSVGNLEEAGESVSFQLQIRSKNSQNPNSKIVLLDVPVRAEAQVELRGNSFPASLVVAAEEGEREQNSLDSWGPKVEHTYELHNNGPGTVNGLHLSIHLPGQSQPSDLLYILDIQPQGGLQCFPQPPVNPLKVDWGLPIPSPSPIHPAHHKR
T1 sequence (P05106 27-788): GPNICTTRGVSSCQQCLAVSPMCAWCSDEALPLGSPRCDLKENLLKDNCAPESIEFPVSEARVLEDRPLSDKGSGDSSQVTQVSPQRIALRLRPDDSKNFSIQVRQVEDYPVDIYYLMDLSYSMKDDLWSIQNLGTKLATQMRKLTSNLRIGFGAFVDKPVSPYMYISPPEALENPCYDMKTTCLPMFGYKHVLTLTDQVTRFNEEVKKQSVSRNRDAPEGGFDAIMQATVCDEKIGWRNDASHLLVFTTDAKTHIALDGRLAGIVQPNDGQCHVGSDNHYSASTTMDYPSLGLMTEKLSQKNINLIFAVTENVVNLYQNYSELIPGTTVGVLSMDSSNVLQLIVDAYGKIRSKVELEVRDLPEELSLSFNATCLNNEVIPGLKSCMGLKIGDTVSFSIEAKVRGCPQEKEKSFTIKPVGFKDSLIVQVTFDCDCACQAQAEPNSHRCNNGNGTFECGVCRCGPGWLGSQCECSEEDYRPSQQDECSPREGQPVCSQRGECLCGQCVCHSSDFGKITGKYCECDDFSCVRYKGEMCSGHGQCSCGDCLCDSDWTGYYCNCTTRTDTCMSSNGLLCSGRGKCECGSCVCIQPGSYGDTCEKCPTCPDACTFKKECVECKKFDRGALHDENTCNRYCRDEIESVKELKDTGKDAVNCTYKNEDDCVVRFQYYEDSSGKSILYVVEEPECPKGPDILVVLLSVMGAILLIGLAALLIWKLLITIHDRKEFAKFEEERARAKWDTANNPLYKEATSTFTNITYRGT
Excerpt: The compounds of the present invention interrupt binding of fibrinogen to platelet glycoprotein IIb/IIIa (GPIIb/IIIa) and thereby inhibit platelet aggregation. […] Because the final, common pathway in normal platelet aggregation is the binding of fibrinogen to activated, exposed GPIIb/IIIa, inhibition of this binding represents a plausible antithrombotic approach. The receptor is activated by stimuli such as ADP, collagen, and thrombin, exposing binding domains to two different peptide regions of fibrinogen: α-chain Arg-Gly-Asp (RGD) and γ-chain 400-411.
IN VITRO SOLID PHASE PURIFIED GLYCOPROTEIN IIB/IIIA BINDING ASSAY.
The plate is covered and incubated overnight at 4° C. The GPIIb/IIa solution is discarded and 150 μl of 5% BSA is added and incubated at RT for 1-3 h. The plate is washed extensively with modified Tyrodes buffer. Biotinylated fibrinogen (25 μl/well) at 2× final concentration is added to the wells that contain the test compounds (25 μl/well) at 2× final concentration. The plate is covered and incubated at RT for 2-4 h. Twenty minutes prior to incubation completion, one drop of Reagent A (Vecta Stain ABC Horse Radish Peroxidase kit, Vector Laboratories, Inc.) and one drop Reagent B are added with mixing to 5 mL modified Tyrodes buffer mix and let stand. The ligand solution is discarded and the plate washed (5×200 μl/well) with modified Tyrodes buffer. Vecta Stain HRP-Biotin-Avidin reagent (50 μl/well, as prepared above) is added and incubated at RT for 15 min. The Vecta Stain solution is discarded and the wells washed (5×200 μl/well) with modified Tyrodes buffer. […] The absorbance is read at 490 nm.

gel-filtered platelets = experiment: In vitro inhibition of thrombin-induced gel-filtered platelet aggregation assay; format: cell-based; conditions: *Indicates IC50, read-out: Pl. Aggr. IC50
Procedure: IN VITRO INHIBITION OF THROMBIN-INDUCED GEL-FILTERED PLATELET AGGREGATION ASSAY.
The percentage of platelet aggregation is calculated as an increase in light transmission of compound treated platelet concentrate vs. control treated platelet concentrate. Blood is obtained from drug free, normal donors into tubes containing 0.13M sodium citrate. Platelet rich plasma (PRP) is collected by centrifugation of whole blood at 200×g for 10 min at 25° C. The PRP (5 mL) is gel filtered through Sepharose 2B (bed volume 50 mL), and the platelet count is adjusted to 2×10^7platelets per sample. The following constituents are added to a siliconized cuvette: concentrated platelet filtrate and Tyrode's buffer (0.1 4M NaCl, 0.0027M KCl, 0.01 2M NaHCO3, 0.76 mM Na2 HPO4, 0.0055M glucose, 2 mg/mL BSA and 5.0 mM HEPES @ pH 7.4) in an amount equal to 350 μl, 50 μl of 20 mM calcium and 50 μl of the test compound. Aggregation is monitored in a BIODATA aggregometerforthe 3 min following the addition of agonist (thrombin 50 μl of 1 unit/mL).

platelet aggregation = experiment: In vivo dog study: gamma thrombin- and collagen-induced platelet aggregation; set-up: species or system mongrel dogs; conditions: mean ± SEM
Procedure: (§1) Adult mongrel dogs of either sex 9-13 kg) were anesthetized with pentobarbital sodium (35 mg/kg, i.v.) and ventilated with room air via an endotracheal tube (12 strokes/min, 25 ml/kg). For arterial pressure determination, the left carotid artery was cannulated with a saline-filledpolyethylene catheter (PE-200) and connected to a Statham pressure transducer (P231D, Oxnard, Calif.). Mean arterial diastolic blood pressure. Heart rate was monitored using a cardiotachometer (Biotach, Gould
(§2) Electronics, Cleveland, Ohio) triggered from a lead 11 electrocardiogram generated by limb leads. A jugular vein was cannulated (PE-200) for drug administration. The left femoral artery and the left femoral vein were cannulated with silicon treated (Sigmacote, Sigma Chemical Co., St. Louis, Mo.), saline filled polyethylene tubing (PE-200) and connected with a 5 cm section of silicon treated tubing (PE-240) to form an extracorporeal arteriovenous shunt (A-V). Shunt patency was monitored using a Doppler flow system (model VF-1, Crystal Biotech Inc., Hopkinton, Mass.) and proximal to the locus of the shunt. All parameters were monitored continuously on a polygraph recorder (Gould TA-4000, Oxnard Calif.) at a paper speed of 10 mm/min.
(§3) On completion of a 15 min post surgical stabilization period, an occlusive thrombus was formed by the introduction of a thrombogenic surface (O braided silk thread, 5 cm in length, Ethicon Inc., Somerville, N.J.) into the shunt. Four consecutive 15 min shunt periods were employed with the first consisting of a vehicle infusion followed by increasing concentrations of Compound 16, SC-47643, saline with DMF or saline with citric acid administered as a bolus followed by an infusion beginning 5 min. before insertion of the thrombogenic surface and continued for an additional 15 min. AT the end of each 15 min shunt period the silk was carefully removed and weighed. A fifth shunt immediately following the total cumulative treatment dose was used to assess patency duration as indicated by time to total occlusion. Thrombus weight was calculated by subtracting the weight of the silk prior to placement from the total weight of the silk on removal from the shunt. Arterial blood was withdrawn prior to the first shunt and after each shunt period for determination of whole blood collagen-induced platelet aggregation, thrombin-induced platelet degranulation (platelet ATP release), prothrombin time and platelet count. Template bleeding time was performed beginning 10 min. into each shunt period.
Whole blood platelet aggregation and ATP release were measured using a lumi-aggregation and ATP release were measured using a lumi-aggregometer (Chrono-log, Havertown, Pa.) by recording the change in impedance (platelet aggregation) and light transmission (ATP-release) through a stirred (1000 rpm) suspension of whole blood maintained at 37 C.
(§4) Compound 16;1+0.03, 3+0.1 and 5+0.3 mg/kg, i.v. (bolus)+mg/kg/hr,i.v. (infusion) was solubilized in saline+DMF (5%) and serially diluted to achieve appropriate concentrations expressed as parent compound.
(§5) All values are expressed as the mean and standard error of the mean. Statistical significance of the change was assessed based on change from baseline suing analysis of variance and Student's t-test. Differences were considered significant when P<0.05.

occlusive thrombus = experiment: In vivo dog study: thrombus formation in extracorporeal arteriovenous shunt; set-up: species or system mongrel dogs; conditions: for Thrombus Weight: mean ± SEM
Procedure: Compound 16 was tested in the following in vivo dog model to determine its therapeutic efficacy
as §1, §2, §3, §4, §5

IC50 (GPIIb/IIIa): 760 nM
SMILES: NCCCC[C@@H](N)C(=O)N1CCCC(C(=O)NCCC(=O)O)C1 (stereo partly drawn) [Compound 10, H-D-Lys-Nip-β-Ala-OH]

IC50 (GPIIb/IIIa): 74 nM
SMILES: CC(=O)N[C@@H](CCCCN)C(=O)N1CCCC(C(=O)NCCC(=O)O)C1 (stereo partly drawn) [Compound 7, Nα-Ac-L-Lys-Nip-β-Ala-OH]

IC50 (GPIIb/IIIa): 740 nM
SMILES: CC(C)(C)OC(=O)N[C@@H](CCCCN)C(=O)N1CCCC(C(=O)NCCC(=O)O)C1 (stereo partly drawn) [Compound 2, Nα-Boc-L-Lys-Nip-γ-Ala--OH]

IC50 (GPIIb/IIIa): 20100 nM
SMILES: CC(C)(C)OC(=O)N[C@@H](CCCCNC(=O)OCc1ccccc1)C(=O)N1CCCC(C(=O)NCCC(=O)OCc2ccccc2)C1 (stereo partly drawn) [Compound 1, Nα-Boc-L-Lys(Cbz)-Nip-Ala-OBn]

inhibition at 5 µM (GPIIb/IIIa; read-out: Binding (column Binding IC50), % @ 5 μM): 20%
SMILES: CC(C)NCCCC[C@H](NC(=O)OC(C)(C)C)C(=O)N1CCCC(C(=O)NCCC(=O)O)C1 (stereo partly drawn) [Compound 15, Nα-Boc-L-Lys(i-Pr)-Nip-β-Ala-OH]

inhibition at 50 µM (GPIIb/IIIa): 59%
SMILES: CC(C)(C)OC(=O)N[C@@H](CCCCN)C(=O)N1CCCC(C(=O)NCCCC(=O)O)C1 (stereo partly drawn) [Compound 9, Nα-Boc-L-Lys-Nip-γ-aminobutyric acid]

IC50 (GPIIb/IIIa): 340 nM
SMILES: CC(=O)N[C@H](CCCCN)C(=O)N1CCCC(C(=O)NCCC(=O)O)C1 (stereo partly drawn) [Compound 13, Nα-Ac-D s-Nip-β-Ala-OH]

IC50 (GPIIb/IIIa): 21 nM
IC50 (gel-filtered platelets): 600 nM
SMILES: CC(C)(C)OC(=O)N[C@H](CCCCN)C(=O)N1CCCC(C(=O)NCCC(=O)O)C1 (stereo partly drawn) [Compound 3, Nα-Boc-D-Lys-Nip-γ-Ala--OH]

inhibition at 50 µM (GPIIb/IIIa): 24%
SMILES: CC(=O)N[C@@H](CCCCN)C(=O)N1CCCC(C(=O)NCC(=O)O)C1 (stereo partly drawn) [Compound 6, Nα-Ac-L-Lys-Nip-Gly-OH]

IC50 (GPIIb/IIIa): 13 nM
IC50 (gel-filtered platelets): 1600 nM
SMILES: NCCCCCC(=O)N1CCCC(C(=O)NCCC(=O)O)C1 (stereo not drawn) [Compound 5, N-(Nε- nocaroyl)-Nip-β-Ala-OH]

IC50 (GPIIb/IIIa): 2600 nM
SMILES: NCCCC[C@H](N)C(=O)N1CCCC(C(=O)NCCC(=O)O)C1 (stereo partly drawn) [Compound 4, H-L-Lys-Nip-γ-Ala-OH]

SMILES: CC(C)(C)OC(=O)N[C@H](CCCCN)C(=O)N1CCC[C@@H](C(=O)NCCC(=O)O)C1 [Compound 16, Nα-Boc-D-Lys-R-(-)-Nip-β-Ala-OH]
Collagen-Induced Plat Agg (% inhib) (platelet aggregation; 2-Dose 1 (1+0.03)): 14 ± 3 % inhib
G-Thrombin-Induced Plat Agg (% inhib) (platelet aggregation; 2-Dose 1 (1+0.03)): 8 ± 5 % inhib
Collagen-Induced Plat Agg (% inhib) (platelet aggregation; 3-Dose 2 (3+0.1), *P < 0.05): 99 ± 1 % inhib
G-Thrombin-Induced Plat Agg (% inhib) (platelet aggregation; 3-Dose 2 (3+0.1), *P < 0.05): 34 ± 8 % inhib
Collagen-Induced Plat Agg (% inhib) (platelet aggregation; 4-Dose 3 (5+0.3), *P < 0.05): 100 ± 0 % inhib
G-Thrombin-Induced Plat Agg (% inhib) (platelet aggregation; 4-Dose 3 (5+0.3), *P < 0.05): 72 ± 8 % inhib
G-Thrombin-Induced Plat Agg (% inhib) (platelet aggregation; 30 min post): 21 ± 8 % inhib
Collagen-Induced Plat Agg (% inhib) (platelet aggregation; 30 min post, *P < 0.05): 82 ± 13 % inhib
G-Thrombin-Induced Plat Agg (% inhib) (platelet aggregation; 60 min post): 11 ± 5 % inhib
Collagen-Induced Plat Agg (% inhib) (platelet aggregation; 60 min post, *P < 0.05): 57 ± 14 % inhib
Incidence of occlusive thrombus formation (animals per group) (occlusive thrombus; Period 2, Dose 1 (1+0.03 mg/kg iv bolus + mg/kg/hr infusion)): 2/4
Incidence of occlusive thrombus formation (animals per group) (occlusive thrombus; Period 3, Dose 2 (3+0.1)): 1/4
Incidence of occlusive thrombus formation (animals per group) (occlusive thrombus; Period 4, Dose 3 (5+0.3)): 0/4
Incidence of occlusive thrombus formation (animals per group) (occlusive thrombus; Post Treatment, monitored for 60 min): 3/4
Thrombus Weight (occlusive thrombus; Shunt 2 - Dose 1 (1+0.03)): 52 ± 3 mg
Thrombus Weight (occlusive thrombus; Shunt 3 - Dose 2 (3+0.1), *P < 0.05): 27 ± 1 mg
Thrombus Weight (occlusive thrombus; Shunt 4 - Dose 3 (5+0.3), *P < 0.05): 19 ± 2 mg
